Source: US11584755B2 (IDEAYA BIOSCIENCES, INC., priority 2017, dated 2023)

Tests used:
Type in all cases: biochemical
[1] = molecular target: hFEN1 (Homo sapiens (Human), UniProt P39748); test: Enzymatic IC50 assay, FAM-labeled DNA oligomer substrate, fluorescence intensity (FEN1); settings: hFEN1 70 pM, substrate 100 nM, reaction time 20 minutes, 23° C.
Method in brief: (§1)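 FEN1, EXO1 or XPG was preincubated 15 min with compound, then the FAM-labelled DNA oligomer substrate was added in Tris-HCl pH 8.0 with 10 mM MgCl2 at 23° C. FEN1 was 70 pM with 100 nM substrate for 20 min, EXO1 6 nM with 30 nM for 60 min, and XPG 100 nM with 100 nM for 120 min. Reactions were EDTA-stopped and read by fluorescence intensity.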

[2] = molecular target: hEXO1, Isoform1 (Homo sapiens (Human), UniProt Q9UQ84); test: Enzymatic IC50 assay, FAM-labeled DNA oligomer substrate, fluorescence intensity (EXO1); settings: hEXO1 6 nM, substrate 30 nM, reaction time 60 minutes, 23° C.
Method in brief: as §1

[3] = molecular target: hXPG (Homo sapiens (Human), UniProt P28715); test: Enzymatic IC50 assay, FAM-labeled DNA oligomer substrate, fluorescence intensity (XPG); settings: hXPG 100 nM, substrate 100 nM, reaction time 120 minutes, 23° C.
Method in brief: as §1

Chain of hEXO1, Isoform1 (Q9UQ84 whole entry, canonical isoform): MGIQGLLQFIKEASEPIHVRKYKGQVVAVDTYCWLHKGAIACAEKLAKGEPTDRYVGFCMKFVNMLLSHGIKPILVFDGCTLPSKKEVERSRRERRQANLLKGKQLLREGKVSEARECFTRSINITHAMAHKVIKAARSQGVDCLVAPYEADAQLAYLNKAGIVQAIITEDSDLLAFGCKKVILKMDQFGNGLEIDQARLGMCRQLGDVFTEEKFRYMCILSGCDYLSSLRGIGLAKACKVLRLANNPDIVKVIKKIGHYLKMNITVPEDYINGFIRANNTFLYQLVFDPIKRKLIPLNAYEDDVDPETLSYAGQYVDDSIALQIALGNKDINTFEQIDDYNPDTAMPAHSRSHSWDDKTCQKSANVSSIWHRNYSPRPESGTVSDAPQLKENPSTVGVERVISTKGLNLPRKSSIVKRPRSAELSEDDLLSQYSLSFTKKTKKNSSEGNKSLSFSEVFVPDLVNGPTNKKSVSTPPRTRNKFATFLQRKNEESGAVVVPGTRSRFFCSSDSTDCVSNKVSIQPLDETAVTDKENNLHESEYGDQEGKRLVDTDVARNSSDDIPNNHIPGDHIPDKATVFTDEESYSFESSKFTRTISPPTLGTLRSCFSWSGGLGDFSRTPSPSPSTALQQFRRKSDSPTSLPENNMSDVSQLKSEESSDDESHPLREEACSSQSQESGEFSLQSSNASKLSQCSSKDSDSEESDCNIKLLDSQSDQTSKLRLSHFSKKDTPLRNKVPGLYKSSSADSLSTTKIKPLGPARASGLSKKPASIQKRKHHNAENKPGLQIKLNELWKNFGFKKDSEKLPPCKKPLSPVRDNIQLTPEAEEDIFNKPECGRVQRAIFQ
Chain of hFEN1 (P39748 whole entry): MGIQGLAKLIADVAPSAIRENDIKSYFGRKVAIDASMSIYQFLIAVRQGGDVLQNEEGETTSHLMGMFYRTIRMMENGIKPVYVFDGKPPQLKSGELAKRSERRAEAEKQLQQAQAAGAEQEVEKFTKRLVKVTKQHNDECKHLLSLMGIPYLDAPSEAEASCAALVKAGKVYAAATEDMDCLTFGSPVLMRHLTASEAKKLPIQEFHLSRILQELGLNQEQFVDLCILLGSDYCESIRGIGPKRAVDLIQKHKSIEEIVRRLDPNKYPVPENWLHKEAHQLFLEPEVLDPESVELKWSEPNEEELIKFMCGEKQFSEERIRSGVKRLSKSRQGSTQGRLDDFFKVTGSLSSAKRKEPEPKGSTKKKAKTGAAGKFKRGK
Chain of hXPG (P28715 whole entry): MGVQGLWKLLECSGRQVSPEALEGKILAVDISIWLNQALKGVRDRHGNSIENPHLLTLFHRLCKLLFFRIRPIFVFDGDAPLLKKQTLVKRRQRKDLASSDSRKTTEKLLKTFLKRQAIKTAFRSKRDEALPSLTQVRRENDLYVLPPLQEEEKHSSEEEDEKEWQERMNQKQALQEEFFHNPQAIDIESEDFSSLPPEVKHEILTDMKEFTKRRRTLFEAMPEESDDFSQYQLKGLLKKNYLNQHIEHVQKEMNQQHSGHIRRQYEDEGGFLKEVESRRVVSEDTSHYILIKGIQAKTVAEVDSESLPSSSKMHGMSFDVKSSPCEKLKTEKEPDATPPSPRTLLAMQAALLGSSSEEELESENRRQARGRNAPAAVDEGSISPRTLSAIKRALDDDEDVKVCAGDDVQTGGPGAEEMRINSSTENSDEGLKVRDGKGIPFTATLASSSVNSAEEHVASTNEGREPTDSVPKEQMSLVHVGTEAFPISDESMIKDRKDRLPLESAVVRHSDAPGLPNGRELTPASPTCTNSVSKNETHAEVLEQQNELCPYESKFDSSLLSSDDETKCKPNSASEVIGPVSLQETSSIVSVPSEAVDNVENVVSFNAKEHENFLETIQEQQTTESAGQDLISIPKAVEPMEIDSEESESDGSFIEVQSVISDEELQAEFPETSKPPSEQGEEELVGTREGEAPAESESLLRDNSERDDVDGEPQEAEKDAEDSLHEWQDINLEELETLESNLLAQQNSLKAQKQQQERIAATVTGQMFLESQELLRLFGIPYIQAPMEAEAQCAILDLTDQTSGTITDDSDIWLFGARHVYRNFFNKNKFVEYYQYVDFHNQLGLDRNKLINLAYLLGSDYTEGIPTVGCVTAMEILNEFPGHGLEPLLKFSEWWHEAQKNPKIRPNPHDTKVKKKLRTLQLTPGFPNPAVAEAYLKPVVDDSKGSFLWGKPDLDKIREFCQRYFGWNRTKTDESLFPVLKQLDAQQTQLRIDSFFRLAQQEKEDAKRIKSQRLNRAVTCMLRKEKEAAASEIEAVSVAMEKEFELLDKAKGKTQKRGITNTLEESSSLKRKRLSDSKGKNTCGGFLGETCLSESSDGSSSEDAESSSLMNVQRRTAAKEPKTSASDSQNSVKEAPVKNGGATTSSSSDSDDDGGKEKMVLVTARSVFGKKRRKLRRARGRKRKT

Row | IC50 [1] [µM] | IC50 [2] [µM] | IC50 [3] [µM] | Structure (SMILES)
1 | < 0.2 | 0.25 to 0.75 | 0.25 to 0.75 | O=C(O)c1c(O)c(=O)n(Cc2cn(-c3ccc4c(c3)OCO4)nn2)c2ccsc12 [Example 148, 4-{[1-(benzo[d][1,3]dioxol-5-yl)-1H-1,2,3-triazol-4-yl]methyl}-6-hydroxy-5-oxo-4,5-dihydrothieno[3,2-b]pyridine-7-carboxylic acid]
2 | < 0.2 | 2.25 to 10 | 0.75 to 2.25 | O=C(O)c1c(O)c(=O)n(Cc2cn(-c3ccc4nc[nH]c4c3)nn2)c2ccsc12 [Example 149, 4-{[1-(1H-benzo[d]imidazol-6-yl)-1H-1,2,3-triazol-4-yl]methyl}-6-hydroxy-5-oxo-4,5-dihydrothieno[3,2-b]pyridine-7-carboxylic acid]
3 | 0.25 to 0.75 | > 10 | > 10 | O=C(O)c1c(O)c(=O)n(Cc2cnn(CC(=O)N3CC[C@H](O)C3)c2)c2ccsc12 [Example 154, (S)-6-hydroxy-4-({1-[2-(3-hydroxypyrrolidin-1-yl)-2-oxoethyl]-1H-pyrazol-4-yl}methyl)-5-oxo-4,5-dihydrothieno[3,2-b]pyridine-7-carboxylic acid]
4 | < 0.2 | 2.25 to 10 | 2.25 to 10 | CN(C(=O)Cn1cc(Cn2c(=O)c(O)c(C(=O)O)c3sccc32)cn1)c1ccccc1 [Example 155]
5 | < 0.2 | 2.25 to 10 | 2.25 to 10 | O=C(O)c1c(O)c(=O)n(Cc2cnn(CC(=O)N3CCOCC3)c2)c2ccsc12 [Example 156]
